Results: patent US5498632A, “Esters of acyl carnitines with long-chain aliphatic alcohols and pharmaceutical compositions containing same having antibacterial activity” (Sigma-Tau Industrie Farmaceutiche Riunite S.p.A., priority 1992, dated 1996)
Read-outs that look alike come from different tables or passages of the source.

How the values were obtained:
Format in all cases: cell-based
Gram- bacterial strains = experiment: Mean MIC in broth and resistant strain number, Gram- strains; conditions: 18 h, read-out: Mean MIC values
Description: (§1) MICs were determined by a standard microdilution test, using serial two-fold dilutions of the substances in Mueller-Hinton broth.
(§2) The inoculum was prepared from an overnight culture in Mueller-Hinton broth matching the 0.5 Mc Farland (turbidity) standard (BRAY W. E., Clinical Laboratory Methods, 5th Ed. C. V. MOSBY, St. Louis, Mo. 1957), and was adjusted to a final concentration of 5.0×10^4 colony-forming units/ml.
(§3) Equal volumes (0.1 ml) of both bacterial suspensions and substance solutions were distributed in microtiter plates (Falcon, 96 wells, round bottom), and then placed in a humidified incubator (37° C.) for 18 hours.
(§4) Evaluation of the Minimal Inhibitory Concentration (MIC) in broth of 16 new substances for Gram- bacterial strains.
(§5) The following strains were used: Enterobacter (1), Escherichia (3), Klebsiella (3), Proteus (3); Pseudomonas (2); Salmonella (2), Serratia (1).

[1] = tested on: Staphylococcus aureus (LC1); experiment: MIC in broth, Gram+ strains; conditions: S. aureus (LC1), Mueller-Hinton broth, 37° C., 18 hours, read-out: Minimal Inhibitory Concentration (MIC)
Description: (§6) Evaluation of the Minimal Inhibitory Concentration (MIC) in broth of 15 new substances for Gram+ bacterial strains.
(§7) The following strains were used: Staphylococcus aureus (4); Streptococcus faecalis (8); Bacillus pumilus (1); Bacillus subtilis (1).
as §1, §2, §3
(§8) The results, in terms of MIC values, resistant strain number and mean MIC values versus susceptible strains, are illustrated in Tables 1-6.

[2] = tested on: Bacillus pumilus (CN 607); experiment: MIC in broth, Gram+ strains; conditions: B. pumilus (CN 607), Mueller-Hinton broth, 37° C., 18 hours, read-out: Minimal Inhibitory Concentration (MIC)
Description: as §6, §7, §1, §2, §3, §8

[3] = tested on: Streptococcus faecalis (505); experiment: MIC in broth, Gram+ strains; conditions: Enterococcus faecalis; S. faecalis (505), Mueller-Hinton broth, 37° C., 18 hours; read-out: Minimal Inhibitory Concentration (MIC)
Description: as §6, §7, §1, §2, §3, §8

[4] = tested on: Streptococcus faecalis (R 2); experiment: MIC in broth, Gram+ strains; conditions: Enterococcus faecalis; S. faecalis (R 2), Mueller-Hinton broth, 37° C., 18 hours; read-out: Minimal Inhibitory Concentration (MIC)
Description: as §6, §7, §1, §2, §3, §8

[5] = tested on: Streptococcus faecalis (519); experiment: MIC in broth, Gram+ strains; conditions: Enterococcus faecalis; S. faecalis (519), Mueller-Hinton broth, 37° C., 18 hours; read-out: Minimal Inhibitory Concentration (MIC)
Description: as §6, §7, §1, §2, §3, §8

[6] = tested on: Staphylococcus aureus (ATCC 14154); experiment: MIC in broth, Gram+ strains; conditions: ATCC14154, S. aureus (ATCC 14154), Mueller-Hinton broth, 37° C., 18 hours, read-out: Minimal Inhibitory Concentration (MIC)
Description: as §6, §7, §1, §2, §3, §8

[7] = tested on: Streptococcus faecalis (501); experiment: MIC in broth, Gram+ strains; conditions: Enterococcus faecalis; S. faecalis (501), Mueller-Hinton broth, 37° C., 18 hours; read-out: Minimal Inhibitory Concentration (MIC)
Description: as §6, §7, §1, §2, §3, §8

[8] = tested on: Staphylococcus aureus (303); experiment: MIC in broth, Gram+ strains; conditions: S. aureus (303), Mueller-Hinton broth, 37° C., 18 hours, read-out: Minimal Inhibitory Concentration (MIC)
Description: as §6, §7, §1, §2, §3, §8

[9] = tested on: Streptococcus faecalis (509); experiment: MIC in broth, Gram+ strains; conditions: Enterococcus faecalis; S. faecalis (509), Mueller-Hinton broth, 37° C., 18 hours; read-out: Minimal Inhibitory Concentration (MIC)
Description: as §6, §7, §1, §2, §3, §8

[10] = tested on: Streptococcus faecalis (516); experiment: MIC in broth, Gram+ strains; conditions: Enterococcus faecalis; S. faecalis (516), Mueller-Hinton broth, 37° C., 18 hours; read-out: Minimal Inhibitory Concentration (MIC)
Description: as §6, §7, §1, §2, §3, §8

[11] = tested on: Streptococcus faecalis (UM); experiment: MIC in broth, Gram+ strains; conditions: Enterococcus faecalis; S. faecalis (UM), Mueller-Hinton broth, 37° C., 18 hours; read-out: Minimal Inhibitory Concentration (MIC)
Description: as §6, §7, §1, §2, §3, §8

[12] = tested on: Streptococcus faecalis (518); experiment: MIC in broth, Gram+ strains; conditions: Enterococcus faecalis; S. faecalis (518), Mueller-Hinton broth, 37° C., 18 hours; read-out: Minimal Inhibitory Concentration (MIC)
Description: as §6, §7, §1, §2, §3, §8

[13] = tested on: Bacillus subtilis (ATCC 6051); experiment: MIC in broth, Gram+ strains; conditions: ATCC6051, B. subtilis (ATCC 6051), Mueller-Hinton broth, 37° C., 18 hours, read-out: Minimal Inhibitory Concentration (MIC)
Description: as §6, §7, §1, §2, §3, §8

[14] = tested on: Staphylococcus aureus (306 MR); experiment: MIC in broth, Gram+ strains; conditions: S. aureus (306 MR), Mueller-Hinton broth, 37° C., 18 hours, read-out: Minimal Inhibitory Concentration (MIC)
Description: as §6, §7, §1, §2, §3, §8

Gram+ bacterial strains = experiment: Mean MIC in broth and resistant strain number, Gram+ strains; conditions: 18 h, versus susceptible strains
Description: as §6, §7, §1, §2, §3, §8

[15] = tested on: Pseudomonas aeruginosa (3 E); experiment: MIC in broth, Gram- strains; conditions: 18 h, read-out: Minimal Inhibitory Concentration (MIC)
Description: as §1, §2, §3, §4, §5

[16] = tested on: Salmonella typhimurium (D.S.); experiment: MIC in broth, Gram- strains; conditions: Salmonella enterica, 18 h, read-out: Minimal Inhibitory Concentration (MIC)
Description: as §1, §2, §3, §4, §5

[17] = tested on: Enterobacter aerogenes (UM); experiment: MIC in broth, Gram- strains; conditions: Klebsiella aerogenes, 18 h, read-out: Minimal Inhibitory Concentration (MIC)
Description: as §1, §2, §3, §4, §5

Escherichia coli (92 F) = experiment: MIC in broth, Gram- strains; conditions: 18 h, E. coli (92 F), read-out: Minimal Inhibitory Concentration (MIC)
Description: as §1, §2, §3, §4, §5

Proteus vulgaris (UM) = experiment: MIC in broth, Gram- strains; conditions: 18 h, read-out: Minimal Inhibitory Concentration (MIC)
Description: as §1, §2, §3, §4, §5

Klebsiella oxytoca (552) = experiment: MIC in broth, Gram- strains; conditions: 18 h, read-out: Minimal Inhibitory Concentration (MIC)
Description: as §1, §2, §3, §4, §5

Compound | MIC [2] [µg/mL] | MIC [7] [µg/mL] | MIC [8] [µg/mL] | MIC [9] [µg/mL] | MIC [13] [µg/mL] | MIC [14] [µg/mL] | MIC (Gram+ bacterial strains) [µg/mL] | MIC [15] [µg/mL] | MIC [17] [µg/mL] | MIC (Escherichia coli (92 F)) [µg/mL] | MIC (Proteus vulgaris (UM)) [µg/mL] | MIC (Gram- bacterial strains) [µg/mL] | MIC (Klebsiella oxytoca (552)) [µg/mL] | further results
CCCCCCCCCCCCOC(=O)CC(C[N+](C)(C)C)OC(=O)CC(C)C (stereo not shown) [ST 1037] | 1.56 | 3.12 | 3.12 | 1.56 | 3.12 | 3.12 | 2.34 | > 100 | 25 | 100 | > 100 | – | – | MIC (Gram- bacterial strains; Gram- strains, versus susceptible strains): 62.5 µg/mL; MIC [1]: 3.12 µg/mL; MIC [3]: 3.12 µg/mL; MIC [4]: 1.56 µg/mL; MIC [5]: 1.56 µg/mL; MIC [6]: 3.12 µg/mL; MIC [10]: 1.56 µg/mL; MIC [11]: 1.56 µg/mL; MIC [12]: 1.56 µg/mL; MIC [16]: > 100 µg/mL
CCCCCCCCCCCCCOC(=O)CC(C[N+](C)(C)C)OC(=O)CCCCCC (stereo not shown) [ST 1050] | 1.56 | 3.12 | 6.25 | 3.12 | – | 6.25 | 4.06 | > 100 | > 100 | > 100 | > 100 | > 100 | > 100 | –
CCCCCCCCCCCCCOC(=O)CC(C[N+](C)(C)C)OC(=O)C(C)CCCC (stereo not shown) [ST 1051] | 1.56 | 6.25 | 6.25 | 6.25 | – | 12.5 | 6.56 | > 100 | > 100 | > 100 | > 100 | > 100 | > 100 | –
CCCCCCCCCCCCCOC(=O)CC(C[N+](C)(C)C)OC(=O)CCCCC (stereo not shown) [ST 1052] | 1.56 | 3.12 | 3.12 | 1.56 | 3.12 | 3.12 | 2.49 | > 100 | > 100 | > 100 | > 100 | > 100 | > 100 | –
CCCCCCCCCCCCCOC(=O)CC(C[N+](C)(C)C)OC(=O)CCCCCCC (stereo not shown) [ST 1053] | 1.56 | 6.25 | 6.25 | 1.56 | – | 6.25 | 4.37 | > 100 | > 100 | > 100 | > 100 | > 100 | > 100 | –
